Measured values published in ChEMBL document CHEMBL1123728, “Rational design of 4-[(methylsulfonyl)amino]benzamides as class III antiarrhythmic agents” (J Med Chem, 1987).
Activity calls are given as the source filed them.

Columns and labels:
Canis familiaris [1] = test: Efficacy in blocking sustained ventricular tachycardia (rate>250 bpm) elicited by programmed electrical stimulation in anesthetized dogs after iv administration of dose 1.4 mg/kg; no. of successful exp / total no. of exp = 3/5; format: functional, Canis lupus familiaris, Cardiac ventricle
Canis familiaris [2] = species: Canis familiaris; test: Concentration required for 20% increase in the functional refractory period of canine ventricular muscle (extracellular electrophysiology) in vitro was reported. Range is between 1.6-25; parameters: species or system Canis lupus familiaris
Canis familiaris [3] = species: Canis familiaris; test: Concentration required for 20% increase in action potential duration of canine Purkinje fiber (intracellular electrophysiology) in vitro measured at 95% repolarization was reported. Range is between 1.0-34; format: functional, Canis lupus familiaris
Canis familiaris [4] = species: Canis familiaris; test: Concentration required for 20% increase in the functional refractory period of canine ventricular muscle (extracellular electrophysiology) in vitro was reported. Range is between 0.8-11; parameters: species or system Canis lupus familiaris
Canis familiaris [5] = species: Canis familiaris; test: Concentration required for 20% increase in action potential duration of canine Purkinje fiber (intracellular electrophysiology) in vitro measured at 95% repolarization was reported. Range is between 0.08-5; format: functional, Canis lupus familiaris
Canis familiaris [6] = species: Canis familiaris; test: Concentration required for 20% increase in the functional refractory period of canine ventricular muscle (extracellular electrophysiology) in vitro was reported;NR means not reached; conditions: Canis lupus familiaris
Canis familiaris [7] = species: Canis familiaris; test: Concentration required for 20% increase in action potential duration of canine Purkinje fiber (intracellular electrophysiology) in vitro measured at 95% repolarization was reported;NR means not reached; format: functional; conditions: Canis lupus familiaris
Canis familiaris [8] = species: Canis familiaris; test: Concentration required for 20% increase in the functional refractory period of canine ventricular muscle (extracellular electrophysiology) in vitro was reported. Range is between 5.6-800; parameters: species or system Canis lupus familiaris
Canis familiaris [9] = species: Canis familiaris; test: Concentration required for 20% increase in action potential duration of canine Purkinje fiber (intracellular electrophysiology) in vitro measured at 95% repolarization was reported. NR means 10% increase in APD95 (C10APD95) was observed at 30 um(22; format: functional; conditions: Canis lupus familiaris
Canis familiaris [10] = test: Efficacy in blocking sustained ventricular tachycardia (rate>250 bpm) elicited by programmed electrical stimulation in anesthetized dogs after iv administration of dose 9 mg/kg; no. of successful exp / total no. of exp = 4/4; format: functional, Canis lupus familiaris, Cardiac ventricle
Canis familiaris [11] = species: Canis familiaris; test: Concentration required for 20% increase in action potential duration of canine Purkinje fiber (intracellular electrophysiology) in vitro measured at 95% repolarization was reported; NR means not reached; format: functional; conditions: Canis lupus familiaris
Canis familiaris [12] = species: Canis familiaris; test: Concentration required for 20% increase in the functional refractory period of canine ventricular muscle (extracellular electrophysiology) in vitro was reported; NR means not reached; conditions: Canis lupus familiaris
Canis familiaris [13] = species: Canis familiaris; test: Concentration required for 20% increase in the functional refractory period of canine ventricular muscle (extracellular electrophysiology) in vitro was reported. Range is between 9-4000; parameters: species or system Canis lupus familiaris
Canis familiaris [14] = test: Efficacy in blocking sustained ventricular tachycardia (rate>250 bpm) elicited by programmed electrical stimulation in anesthetized dogs after iv administration of dose 1 mg/kg; no. of successful exp / total no. of exp = 2/7; format: functional, Canis lupus familiaris, Cardiac ventricle
Canis familiaris [15] = test: Efficacy in blocking sustained ventricular tachycardia (rate>250 bpm) elicited by programmed electrical stimulation in conscious dogs after iv administration of dose 3 mg/kg; no. of successful exp / total no. of exp = 4/4; format: functional, Canis lupus familiaris, Cardiac ventricle
Canis familiaris [16] = species: Canis familiaris; test: Concentration required for 20% increase in action potential duration of canine Purkinje fiber (intracellular electrophysiology) in vitro measured at 95% repolarization was reported. Range is between 9-63; format: functional, Canis lupus familiaris
Canis familiaris [17] = species: Canis familiaris; test: Concentration required for 20% increase in action potential duration of canine Purkinje fiber (intracellular electrophysiology) in vitro measured at 95% repolarization was reported. Range is between 0.03-2; format: functional, Canis lupus familiaris
Canis familiaris [18] = species: Canis familiaris; test: Concentration required for 20% increase in the functional refractory period of canine ventricular muscle (extracellular electrophysiology) in vitro was reported;NR=at 10 uM the FRP was increased 13%; conditions: Canis lupus familiaris
Canis familiaris [19] = test: Efficacy in blocking sustained ventricular tachycardia (rate>250 bpm) elicited by programmed electrical stimulation in conscious dogs after iv administration of dose 1 mg/kg; no. of successful exp / total no. of exp = 5/6; format: functional, Canis lupus familiaris, Cardiac ventricle
Canis familiaris [20] = species: Canis familiaris; test: Decrease in Vmax in isolated canine Purkinje fibers at 10 uM; format: functional, Canis lupus familiaris, Purkinje fiber
Canis familiaris [21] = test: Efficacy in blocking sustained ventricular tachycardia (rate>250 bpm) elicited by programmed electrical stimulation in anesthetized dogs after iv administration of dose 0.3 mg/kg; no. of successful exp / total no. of exp = 7/10; format: functional, Canis lupus familiaris, Cardiac ventricle
Canis familiaris [22] = test: Efficacy in blocking sustained ventricular tachycardia (rate>250 bpm) elicited by programmed electrical stimulation in 4 anesthetized dogs after iv administration of dose 1 mg/kg; no. of successful exp / total no. of exp = 4/4; format: functional, Canis lupus familiaris, Cardiac ventricle
Canis familiaris [23] = species: Canis familiaris; test: Concentration required for 20% increase in the functional refractory period of canine ventricular muscle (extracellular electrophysiology) in vitro was reported. Range is between 9-35; parameters: species or system Canis lupus familiaris
[24] = pKa1 was determined; format: physicochemical; conditions: read-out: pKa1
Mus musculus = test: Acute toxicity after intraperitoneal administration in mouse was determined; range 250-300 mg/kg; format: functional; conditions: ip
[25] = Half life period was determined; conditions: dog
[26] = Bioavailability after peroral administration (3 mg/kg) in dog was determined; Range 41-98%; format: ADME, organism-based, Canis lupus familiaris; conditions: in vivo, po, read-out: Bioavailabiility
Canis familiaris [27] = test: Efficacy in blocking sustained ventricular tachycardia (rate>250 bpm) elicited by programmed electrical stimulation in conscious dogs. Administered orally at a dose of 2.5 mg/kg after iv administration; no. of successful exp / total no. of exp = 5 /6; format: functional, Canis lupus familiaris, Cardiac ventricle; conditions: route oral
[28] = pKa2 was determined; format: physicochemical; conditions: read-out: pKa2
Canis familiaris [29] = species: Canis familiaris; test: Concentration required for 20% increase in action potential duration of canine Purkinje fiber (intracellular electrophysiology) in vitro measured at 95% repolarization was reported. RAnge is between 2.0-11.4; format: functional, Canis lupus familiaris
Canis familiaris [30] = species: Canis familiaris; test: Concentration required for 20% increase in the functional refractory period of canine ventricular muscle (extracellular electrophysiology) in vitro was reported, range is 0.3-1.1; parameters: species or system Canis lupus familiaris
Canis familiaris [31] = species: Canis familiaris; test: Concentration required for 20% increase in action potential duration of canine Purkinje fiber (intracellular electrophysiology) in vitro measured at 95% repolarization was reported. Range is between 0.2-5; format: functional, Canis lupus familiaris
Canis familiaris [32] = test: Efficacy in blocking sustained ventricular tachycardia (rate>250 bpm) elicited by programmed electrical stimulation in anesthetized dogs after iv administration of dose 0.8 mg/kg; no. of successful exp / total no. of exp = 5/9; format: functional, Canis lupus familiaris, Cardiac ventricle
Canis familiaris [33] = species: Canis familiaris; test: Concentration required for 20% increase in the functional refractory period of canine ventricular muscle (extracellular electrophysiology) in vitro was reported. Range is between 0.05-3.7; parameters: species or system Canis lupus familiaris
Canis familiaris [34] = species: Canis familiaris; test: Concentration required for 20% increase in action potential duration of canine Purkinje fiber (intracellular electrophysiology) in vitro measured at 95% repolarization was reported. Range is between 0.01-0.03; format: functional, Canis lupus familiaris
Canis familiaris [35] = species: Canis familiaris; test: Concentration required for 20% increase in action potential duration of canine Purkinje fiber (intracellular electrophysiology) in vitro measured at 95% repolarization was reported. Range is between 0.2-0.5; format: functional, Canis lupus familiaris
Canis familiaris [36] = test: Efficacy in blocking sustained ventricular tachycardia (rate>250 bpm) elicited by programmed electrical stimulation in anesthetized dogs after iv administration of 0.5 mg/kg; no. of successful exp / total no. of exp = 4/4; format: functional, Canis lupus familiaris, Cardiac ventricle
Canis familiaris [37] = species: Canis familiaris; test: Concentration required for 20% increase in the functional refractory period of canine ventricular muscle (extracellular electrophysiology) in vitro was reported; parameters: species or system Canis lupus familiaris
Canis familiaris [38] = species: Canis familiaris; test: Concentration required for 20% increase in the functional refractory period of canine ventricular muscle (extracellular electrophysiology) in vitro was reported. Range is between 1.2-150; parameters: species or system Canis lupus familiaris
Canis familiaris [39] = species: Canis familiaris; test: Concentration required for 20% increase in action potential duration of canine Purkinje fiber (intracellular electrophysiology) in vitro measured at 95% repolarization was reported. Range is between 1.8-2.0; format: functional, Canis lupus familiaris
Canis familiaris [40] = test: Efficacy in blocking sustained ventricular tachycardia (rate>250 bpm) elicited by programmed electrical stimulation in anesthetized dogs after iv administration of dose 1.0 mg/kg; no. of successful exp / total no. of exp = 3/4; format: functional, Canis lupus familiaris, Cardiac ventricle
Canis familiaris [41] = test: Efficacy in blocking sustained ventricular tachycardia (rate>250 bpm) elicited by programmed electrical stimulation in conscious dogs after iv administration of dose 0.5 mg/kg; no. of successful exp / total no. of exp = 4/4; format: functional, Canis lupus familiaris, Cardiac ventricle
Canis familiaris [42] = test: Efficacy in blocking sustained ventricular tachycardia (rate>250 bpm) elicited by programmed electrical stimulation in conscious dogs after iv administration of 0.8 mg/kg; no. of successful exp / total no. of exp = 5/5; format: functional, Canis lupus familiaris, Cardiac ventricle

## CCN(CC)CCCNC(=O)c1ccc(NS(C)(=O)=O)cc1
Canis familiaris [1]
  Efficacy: 3
Canis familiaris [2]
  C20 FRP: 4 µM
Canis familiaris [3]
  C20 APD95: 2 µM

## CCCCCCCNCCNC(=O)c1ccc(NS(C)(=O)=O)cc1.Cl
Canis familiaris [4]
  C20 FRP: 4 µM
Canis familiaris [5]
  C20 APD95: 0.2 µM

## CCN(CC)CCNC(=O)c1ccc(NS(=O)(=O)C(F)(F)F)cc1
Canis familiaris [6]
  C20 FRP: Not reached
Canis familiaris [7]
  C20 APD95: Not reached

## CCNCCNC(=O)c1ccc(NS(C)(=O)=O)cc1
Canis familiaris [6]
  C20 FRP: Not reached
Canis familiaris [7]
  C20 APD95: Not reached

## CCN(CC)CCNC(=O)c1ccc(NC(C)=O)cc1 [ACECAINIDE]
Canis familiaris [8]
  C20 FRP: 60 µM
Canis familiaris [9]
  C20 APD95: Partially active
Canis familiaris [10]
  Efficacy: 4

## CCN(CC)CCNC(=O)c1ccc(NS(=O)(=O)CC)cc1
Canis familiaris [11]
  C20 APD95: Not reached
Canis familiaris [12]
  C20 FRP: Not reached

## CC(C)NCC(O)c1ccc(NS(C)(=O)=O)cc1 (racemic) [SOTALOL]
Canis familiaris [13]
  C20 FRP: 52 µM
Canis familiaris [14]
  Efficacy: 2
Canis familiaris [15]
  Efficacy: 4
Canis familiaris [16]
  C20 APD95: 22 µM

## CCN(CC)CCNC(=O)c1ccc(N(C)S(C)(=O)=O)cc1
Canis familiaris [7]
  C20 APD95: Not reached
Canis familiaris [12]
  C20 FRP: Not reached

## CCCCCCC[N+](CC)(CC)CCCCc1ccc(Cl)cc1 [CLOFILIUM]
Canis familiaris [17]
  C20 APD95: 0.2 µM
Canis familiaris [18]
  C20 FRP: Partially active
Canis familiaris [19]
  Efficacy: 5
Canis familiaris [20]
  delta Vmax: -18%
Canis familiaris [21]
  Efficacy: 7

## CCN(CC)CCNC(=O)c1ccc(NS(C)(=O)=O)cc1.Cl [SEMATILIDE HYDROCHLORIDE]
Canis familiaris [22]
  Efficacy: 4
Canis familiaris [23]
  C20 FRP: 17 µM
[24]
  pKa: 7.6
Mus musculus
  LD50: 250 mg/kg
[25]
  half-life: 2.7 h
[26]
  bioavailability: 41%
Canis familiaris [27]
  Efficacy: 5
[28]
  pKa: 9.51
Canis familiaris [29]
  C20 APD95: 3.5 µM

## C=CCN(CCN(CC)CC)C(=O)c1ccc(NS(C)(=O)=O)cc1
Canis familiaris [30]
  C20 FRP: 0.5 µM
Canis familiaris [31]
  C20 APD95: 0.5 µM
Canis familiaris [32]
  Efficacy: 5

## CCCCCCCN(CC)CCNC(=O)c1ccc(NS(C)(=O)=O)cc1
Canis familiaris [33]
  C20 FRP: 0.5 µM
Canis familiaris [34]
  C20 APD95: 0.02 µM

## CCN(CC)C1CCC(NC(=O)c2ccc(NS(C)(=O)=O)cc2)CC1.Cl (configuration not stated)
Canis familiaris [35]
  C20 APD95: 0.4 µM
Canis familiaris [36]
  Efficacy: 4
Canis familiaris [37]
  C20 FRP: 40 µM
Canis familiaris [38]
  C20 FRP: 3 µM
Canis familiaris [39]
  C20 APD95: 1.9 µM
Canis familiaris [40]
  Efficacy: 3
Canis familiaris [41]
  Efficacy: 4
Canis familiaris [42]
  Efficacy: 5
